# Biological target: Phospholipase A2 (Homo sapiens, UniProt P04054)
# Assay: Inhibition of PLA2 in fMLP and A23187 ionophore-stimulated human HL60 cells assessed as effect on [3H]arachidonic acid release
# Assay type: cell-based
# Details: hl-60
# Chain of Phospholipase A2 (P04054 whole entry): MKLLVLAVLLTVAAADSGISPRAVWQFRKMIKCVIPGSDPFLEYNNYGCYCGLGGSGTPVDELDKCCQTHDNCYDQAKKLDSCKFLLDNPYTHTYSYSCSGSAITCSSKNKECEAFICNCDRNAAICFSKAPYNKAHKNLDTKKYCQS
row,IC50,SMILES
1,6 µM,CC(C)=CCc1cc([C@@H]2CC(=O)c3c(O)cc(O)cc3O2)cc(CC=C(C)C)c1O [ABYSSINONE V]
2,3 µM,CC(C)=CCc1cc2c(cc1O)OCc1c-2oc2c(CC=C(C)C)c(O)ccc12 [ERYCRYSTAGALLIN]
3,10 µM,CC(C)=CCc1cc(C2CC(=O)c3c(cc(O)c(CC=C(C)C)c3O)O2)cc(CC=C(C)C)c1O (stereo not drawn)

# From ChEMBL document CHEMBL1145689, “Phospholipase A 2 Inhibitors from an Erythrina Species from Samoa” (J Nat Prod, 1997)
